# Results reported in article PMC8011081, “Bio-guided isolation of anti-leishmanial natural products from Diospyros gracilescens L. (Ebenaceae)” (BMC Complementary Medicine and Therapies, 2021).
# Like-named read-outs stand apart in the source and are kept apart here.
# Columns and labels:
# [1] = test system: L. donovani promastigotes (MHOM/SD/62/1S); test: Inhibitory assay against L. donovani promastigotes (resazurin colorimetric assay); assay type: cell-based; details: Leishmania donovani, mean ± SD, triplicate
# Procedure: The cryopreserved promastigote form of L. donovani (1S (MHOM/SD/62/1S) was obtained from Bei Resources (https://www.beiresources.org/) and is routinely cultured at the Antimicrobial and Biocontrol Agents Unit, University of Yaoundé I, in Medium 199 (Sigma, Darmstadt, Germany) supplemented with 10% Heat-Inactivated fetal Bovine Serum (HIFBS) (Sigma, Darmstadt, Germany) and 100 IU/mL penicillin and 100 μg/mL streptomycin. The culture was maintained in 75 Cm^2 cell culture flask at 28 °C and checked for growth daily and sub-cultured everyday 72 h.
# The stock solutions were prepared by dissolving each sample in 100% dimethyl sulfoxide (DMSO) and subsequently diluted serially in non-supplemented culture medium. […] The viability rate of promastigotes positively correlated with the amount of pink resorufin that was produced through the reduction of blue resazurin by the dehydrogenase enzymes in the inner mitochondrial membrane of the living parasites. Briefly, promastigotes from a logarithmic phase culture (4 × 10^5 cells/mL; 90 μL) were seeded in 96-well microtiter plates and were treated with 10 μl of inhibitors at different triplicate concentrations ranging 100 μg/mL-0.16 μg/mL for extracts and fractions and 50 μg/mL-0.08 μg/mL for compounds. The final concentration of DMSO in each well was not higher than 1%. Plates were incubated for 28 h at 28 °C, followed by the addition of 1 mg/mL resazurin (Sigma, Darmstadt, Germany). […] After an additional incubation for 44 h, plates were then read on a Magelan Infinite M200 fluorescence multi-well plate reader (Tecan, Männedorf, Switzerland) at an excitation and emission wave lengths of 530 and 590 nm respectively.
# L. donovani amastigotes = test: Inhibitory assay against intracellular L. donovani amastigotes in Raw 264.7 macrophages (resazurin); assay type: cell-based; details: Leishmania donovani, RAW264.7, isolated compounds, mean ± SD
# Procedure: The effect of plant isolates against the intracellular amastigote form of L. donovani was evaluated essentially as described by Jain et al. with some modifications. Briefly, macrophage Raw 264.7 cells ([…]) were seeded in 96 well plates and incubated for 6 h at 37 °C under 5% CO2 for adhesion of the cells. Afterwards, the non-adherent cells were washed-out with sterile PBS. The adherent Raw 264.7 cells were infected with metacyclic promastigotes (4 × 10^5 cells) at an infection ratio of 1:10 macrophage: parasites and incubated for 24 h at 37 °C under 5% CO2 in order to allow infection of macrophages by metacyclic promastigotes. Thereafter, the overlying medium was removed, and the monolayer cells with internalized amastigotes were carefully washed four times with PBS to remove free parasites. Freshly prepared M199 medium containing 10% FBS and the test extracts were added in triplicate to the infected cells at serially diluted concentrations and incubated for 48 h at 37 °C under 5% CO2. After incubation, 0.05% Sodium dodecyl sulfate (SDS) was added in each well for 30 s for controlled lysis followed by M199 with 10% FBS as macrophage lysis stopper. Resazurin reagent (250 μg/mL) was thereafter added in each well and the plates were incubated for 24 h followed by fluorescence recording at λexcitation = 530 nm and λemission = 590 nm using a Tecan Infinite M200 microplate reader (Tecan). Inhibition percentages were calculated using Microsoft Excel Software and median inhibitory concentration (IC50) obtained from dose-response curves using GraphPad Prism 5.0. Software.
# in vitro = details: mouse
# Procedure: The cytotoxicity profile of extracts, fractions and compounds was assessed using the Alamar blue assay against Raw 264.7 cells duly cultivated in complete Dulbecco’s Modified Eagle’s Medium (DMEM) containing 13.5 g/L DMEM (Sigma Aldrich), 10% fetal Bovine Serum (Sigma Aldrich), 0.2% sodium bicarbonate (w/v) (Sigma, Darmstadt, Germany) and 50 μg/mL gentamycin (Sigma Aldrich). Globally, macrophages were seeded into 96-wells cell-culture flat-bottomed plates at a density of 10^4 cells in final volume of 100 μL of complete medium/well and incubated for 24 h at 37 °C, 5% CO2, 70% RH in a ICO 105 memmert incubator (memmert, Schwabach, Germany) to allow cell adhesion. Ten μL of each serially diluted test sample were added in triplicate wells and assay plates were then incubated for 48 h in the same experimental conditions. Growth control consisted of 0.1%DMSO (100% growth) and positive control of podophyllotoxin (Sigma, Darmstadt, Germany) at 20 μM. Cell proliferation was checked by adding 10 μL of a stock solution of resazurin (0.15 mg/mL in sterile PBS) to each well followed by plates incubation during 4 h. Fluorescence was then read on a Tecan Infinite M200 fluorescence multi-well plate reader at an excitation/emission of 530/590 nm. […] Selectivity indices (CC50/IC50, defining the balance between cytotoxicity and antileishmanial activity) were calculated for each test substance.
# [2] = test system: L. donovani promastigotes; test: Concentration/time inhibition (kill) kinetics, trypan blue counting; assay type: cell-based, Leishmania donovani
# Procedure: The number of viable parasites was determined after every 24 h over 120 h by staining with trypan blue. Quantification of viable parasites was achieved by counting the parasites with clear cytoplasm (non-stained) using a Neubauer hemocytometer with cover slips. Three independent experiments were performed for each sample.
# [3] = isolated compounds, read-out: IC50 (Promastigotes)
compound,measurement,setting,value
"OC1CC(O)C(O)C(O)C1O (centres unmarked) [1-deoxyinositol (7), 1-deoxyinositol]",IC50,[1]; [3],241.71 ± 0.16 µM
same,IC50,L. donovani amastigotes,120 ± 0.18 µM
same,CC50,in vitro,> 1220 µM
"C[C@@H]1[C@H](O)[C@@H](C)/C=C/C=C/C=C/C=C/C=C/C=C/C=C/[C@H](O[C@@H]2O[C@H](C)[C@@H](O)[C@H](N)[C@@H]2O)C[C@@H]2O[C@](O)(C[C@@H](O)C[C@@H](O)[C@H](O)CC[C@@H](O)C[C@@H](O)CC(=O)O[C@H]1C)C[C@H](O)[C@H]2C(=O)O [Amphotericin B, reference compound]",IC50,"[1]; crude extracts, H20: EtOH, read-out: Promastigote of L. donovani (MHOM/SD/62/1S) IC50 ± SD",0.34 ± 0.22 µg/mL
same,IC50,[1]; [3],0.37 ± 0.22 µM
same,IC50,"[1]; trunk extract and fractions, read-out: IC50 (Promastigotes)",0.34 ± 0.22 µg/mL
same,Effect on promastigote replication / growth,"[2]; 0.5x IC50, IC50, 2x IC50, 4x IC50, viable parasites counted every 24 h",significant reduction in promastigote replication after 24 h
same,Cidal effect,"[2]; all tested concentrations, exposure up to 120 h",no evidence of cidal effect
"C=C(C)[C@@H]1CC[C@]2(C(=O)O)CC[C@]3(C)[C@H](CC[C@@H]4[C@@]5(C)CC[C@H](O)C(C)(C)[C@@H]5CC[C@]43C)[C@@H]12 [Betulinic acid (3), Betulinic acid]",IC50,[1]; [3],13.69 ± 0.07 µM
same,IC50,L. donovani amastigotes,18.46 ± 0.01 µM
same,CC50,in vitro,82.39 ± 0.09 µM
"C=C(C)[C@@H]1CC[C@]2(C)CC[C@]3(C)[C@H](CC[C@@H]4[C@@]5(C)CC[C@H](O)C(C)(C)[C@@H]5CC[C@]43C)[C@@H]12 [Lupeol (1), Lupeol]",IC50,[1]; [3],23.22 ± 0.08 µM
same,IC50,L. donovani amastigotes,46.7 ± 0.65 µM
same,CC50 at 48 h,in vitro; Raw 264.7 cells (macrophages),19.3 ± 0.3 µM
"CCC(CCC(C)C1CCC2C3CC=C4CC(OC5OC(CO)C(O)C(O)C5O)CCC4(C)C3CCC12C)C(C)C [β-sitosterol glucoside (6), β-sitosterol 3-O-D-glucopyranoside]",IC50,[1]; [3],49.34 ± 0.12 µM
same,IC50,L. donovani amastigotes,32 ± 0.22 µM
same,CC50 at 48 h,in vitro,28.6 ± 0.07 µM
